This passage reports IC50 and melting point results from paper PMC6272887, “Discovery of Potent c-MET Inhibitors with New Scaffold Having Different Quinazoline, Pyridine and Tetrahydro-Pyridothienopyrimidine Headgroups” (Molecules, 2016).

Like-named read-outs stand apart in the source and are kept apart here. Bounds are passed on as bounds.

The target in one series is T1, c-MET (Homo sapiens, UniProt P08581).
T1 construct: purchased Cell Signaling Technology, Inc
The series is described as follows: In vitro kinase assay (HTScan MET Kinase Assay Kit, colorimetric ELISA). The series is classed as biochemical. The settings on record: ATP 10 µM; three independent determinations; read-out: Enzymatic Inhibition (IC50, µM) c-MET. How it is done:
In vitro kinase inhibitory ability was determined using HTScan MET Kinase Assay Kit, HTScan VEGF Receptor 2 Kinase Assay Kit, HTScan c-Kit Kinase Assay Kit, HTScan PDGF Receptor β Kinase Assay Kit and HTScan EGFR Kinase Assay Kit(purchased from Cell Signaling Technology, Inc. Danvers, MA, USA) by colorimetric ELISA assay according to the manufacturer’s instructions. Briefly, reaction cocktail containing recombinant human MET kinase or other kinases were incubated with various concentrations of tested compounds or DMSO (0.1%) for 5 min at room temperature, and then ATP/substrate peptide cocktail was added to the pre-incubated reaction cocktail. After incubation at room temperature for 30 min, the reaction was stopped and transferred to a 96-wellstreptavidin-coated plate, and incubated for 1 h at room temperature. Primary antibody (phosphorylated tyrosine monoclonal antibody (pTyr-100), 1:1000 in PBS/T with 1% bovine serum albumin (BSA)) was added into per well until the wells were washed thrice with PBS/T. After incubated at room temperature for 1 h, phosphorylation of the substrate was monitored with HRP-labeled anti-mouse IgG antibody (1:500 in PBS/T with 1% BSA), followed by a chromogenic reaction. Finally, the kinase assay was detected at 450 nm with microplate reader. The reaction processed with only DMSO (0.1%) served as a vehicle control. […] The kinase assay was performed thrice independently.
For orientation: In an ELISA, binding on a coated surface is turned into a signal by an enzyme label.

The test system of series [1] is HeLa (human cervical carcinoma). Kind of series: Cell proliferative assay (MTT), HeLa. The settings on record: HeLa cells, read-out: Proliferative Inhibition (IC50, µM) HeLa. The class given is cell-based. How it is done: (§1) The anti-proliferative activities of synthesized compounds against HeLa, Hep-G2 and MCF-7 cells were evaluated by MTT assay. HeLa cells were grown to log phase in RPMI 1640 medium supplemented with 10% fetal bovine serum. Hep-G2 and MCF-7 cells were grown to log phase in DMEM medium supplemented with 10% fetal bovine serum. After diluting to […] with the complete medium, 100 µL of the obtained cell suspension was added to each well of 96-well culture plates. The subsequent incubation was permitted at 37 °C, 5% CO2 atmosphere for 48 h before the anti-proliferative assessments. Tested samples at pre-set concentrations were added to 6 wells. Before the anti-proliferative assessments, 20 µL of PBS containing 2.5 mg∙mL^−1 of MTT was added to each well. Four h later, 100 µL extraction solution (DMSO) was added to each well and the optical density was measured at a wavelength of 570 nm on an ELISA microplate reader.

Series [2] relates to Hep-G2 (human liver cancer). The series is described as follows: Cell proliferative assay (MTT), Hep-G2. The settings on record: read-out: Proliferative Inhibition (IC50, µM) Hep-G2. The series is classed as cell-based. How it is done: as §1
Series [3] relates to MCF-7 (human breast cancer). Kind of series: Cell proliferative assay (MTT), MCF-7. The class given is cell-based. The settings on record: MCF-7 cells, read-out: Proliferative Inhibition (IC50, µM) MCF-7. How it is done:
as §1

Setting [4] is: Homo sapiens, HepG2, Hep-G2 cells.

T1 sequence (P08581 25-1390): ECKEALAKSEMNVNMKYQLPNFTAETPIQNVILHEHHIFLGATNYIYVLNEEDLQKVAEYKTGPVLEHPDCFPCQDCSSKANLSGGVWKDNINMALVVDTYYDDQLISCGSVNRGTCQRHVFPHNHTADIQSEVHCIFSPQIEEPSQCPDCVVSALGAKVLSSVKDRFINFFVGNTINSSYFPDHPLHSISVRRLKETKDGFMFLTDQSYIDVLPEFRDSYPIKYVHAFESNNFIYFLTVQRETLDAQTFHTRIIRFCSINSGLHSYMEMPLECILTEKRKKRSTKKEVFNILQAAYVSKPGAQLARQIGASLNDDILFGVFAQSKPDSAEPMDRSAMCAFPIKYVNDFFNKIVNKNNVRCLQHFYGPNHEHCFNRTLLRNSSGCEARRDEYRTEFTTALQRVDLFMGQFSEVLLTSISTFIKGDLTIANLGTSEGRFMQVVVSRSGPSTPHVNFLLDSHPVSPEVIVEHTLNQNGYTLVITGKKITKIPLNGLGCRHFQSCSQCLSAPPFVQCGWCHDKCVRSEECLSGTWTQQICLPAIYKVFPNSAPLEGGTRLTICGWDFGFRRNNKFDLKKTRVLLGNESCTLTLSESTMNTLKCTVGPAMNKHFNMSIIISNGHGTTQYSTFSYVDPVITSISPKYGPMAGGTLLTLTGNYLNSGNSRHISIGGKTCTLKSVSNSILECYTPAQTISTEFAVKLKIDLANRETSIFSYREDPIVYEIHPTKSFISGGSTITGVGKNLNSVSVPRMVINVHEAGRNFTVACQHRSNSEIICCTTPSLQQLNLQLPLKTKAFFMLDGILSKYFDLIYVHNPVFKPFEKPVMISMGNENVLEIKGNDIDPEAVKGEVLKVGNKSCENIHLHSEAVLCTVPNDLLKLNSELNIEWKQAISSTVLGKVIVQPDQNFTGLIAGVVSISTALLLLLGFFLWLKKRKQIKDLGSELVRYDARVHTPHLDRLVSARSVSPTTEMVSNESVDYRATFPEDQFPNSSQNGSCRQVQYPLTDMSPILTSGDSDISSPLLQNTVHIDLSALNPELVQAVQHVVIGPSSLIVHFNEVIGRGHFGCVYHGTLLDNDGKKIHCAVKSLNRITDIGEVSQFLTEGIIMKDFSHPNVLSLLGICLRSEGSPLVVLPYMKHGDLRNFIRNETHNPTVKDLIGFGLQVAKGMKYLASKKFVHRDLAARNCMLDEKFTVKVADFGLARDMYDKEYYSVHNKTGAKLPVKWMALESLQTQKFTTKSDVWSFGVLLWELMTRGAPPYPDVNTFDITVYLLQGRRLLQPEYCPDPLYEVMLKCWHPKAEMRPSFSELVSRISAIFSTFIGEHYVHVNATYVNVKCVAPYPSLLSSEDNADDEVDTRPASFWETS

Regarding `COc1cc2ncnc(Oc3cccc(C(=O)Nc4cc(C(C)(C)C)nn4-c4ccccc4)c3)c2cc1OC` [Compound 9a, N-(3-(tert-butyl)-1-phenyl-1H-pyrazol-5-yl)-3-((6,7-dimethoxyquinazolin-4-yl)oxy)benzamide], the melting point (as a rule, the temperature, or range, at which the solid turns liquid) was in the range of 217 to 219 °C. The IC50 (commonly the concentration that gives 50% inhibition) at c-MET stood at 8.4 ± 0.6 µM. The IC50 in series [1] (Homo sapiens, HeLa) was determined as 28.7 ± 1.1 µM. For the same compound, the half-maximal inhibitory concentration (IC50) in series [2] (setting [4]) was found to be 38.5 ± 1.3 µM. Also, the IC50 in series [3] (Homo sapiens, MCF7, MTT assay) amounted to 46.1 ± 0.8 µM.
On to `CNC(=O)c1cc(Oc2cccc(C(=O)Nc3cc(C(C)(C)C)nn3-c3ccccc3)c2)ccn1` [Compound 9b], for which the IC50 is greater than 10 µM on c-MET; greater than 100 µM in series [1] (Homo sapiens, HeLa); greater than 100 µM in series [2] (setting [4]); 59.7 ± 1.3 µM in series [3] (Homo sapiens, MCF7, MTT assay).
In the case of `CC(C)(C)OC(=O)N1CCc2c(sc3ncnc(Oc4cccc(C(=O)Nc5cc(C(C)(C)C)nn5-c5ccccc5)c4)c23)C1` [Compound 9c, tert-butyl 4-{3-((3-(tert-butyl)-1-phenyl-1H-pyrazol-5-yl)carbamoyl)phenoxy}-5,6-dihydropyrido(4’,3’:4,5)thieno(2,3-d)pyrimidine-7(8H)-carboxylate], the IC50 is greater than 10 µM at c-MET; greater than 100 µM in series [1] (Homo sapiens, HeLa); greater than 100 µM in series [2] (setting [4]); 66.7 ± 1.5 µM in series [3] (Homo sapiens, MCF7, MTT assay).
Regarding `COc1ccc(NC(=O)c2cccc(Oc3ncnc4cc(OC)c(OC)cc34)c2)cc1OC` [Compound 11a, N-(3,4-dimethoxyphenyl)-3-((6,7-dimethoxyquinazolin-4-yl)oxy)benzamide], the melting point is 220 to 222 °C. For the same compound, the IC50 at c-MET is 0.52 ± 0.05 µM. For the same compound, in series [1] (Homo sapiens, HeLa), the IC50 is 14.1 ± 0.16 µM. Also, the IC50 in series [2] (setting [4]) is greater than 100 µM. Moreover, in series [3] (Homo sapiens, MCF7, MTT assay), the IC50 amounted to 3.4 ± 0.21 µM.
For `COc1cc2ncnc(Oc3cccc(C(=O)Nc4ccc(Cl)cc4)c3)c2cc1OC` [Compound 11b, N-(4-chlorophenyl)-3-((6,7-dimethoxyquinazolin-4-yl)oxy)benzamide] the same measures were 203 to 205 °C, 0.12 ± 0.03 µM, 1.8 ± 0.06 µM, 9.2 ± 0.17 µM and 7.8 ± 0.14 µM.
As to `COc1cc2ncnc(Oc3cccc(C(=O)Nc4ccc(F)cc4)c3)c2cc1OC` [Compound 11c, 3-((6,7-dimethoxyquinazolin-4-yl)oxy)-N-(4-fluorophenyl)benzamide], the melting point was in the range of 178 to 180 °C. The IC50 on c-MET is 0.08 ± 0.04 µM. Besides, the IC50 in series [1] (Homo sapiens, HeLa) turned out to be 0.9 ± 0.12 µM. Moreover, the IC50 in series [2] (setting [4]) worked out at 10.1 ± 0.2 µM. In addition, in series [3] (Homo sapiens, MCF7, MTT assay), the IC50 was 5.2 ± 0.36 µM.
Consider `CNC(=O)c1cc(Oc2cccc(C(=O)Nc3ccc(OC)c(OC)c3)c2)ccn1` [Compound 11d, 4-{3-((3,4-dimethoxyphenyl)carbamoyl)phenoxy}-N-methylpicolinamide], for which the IC50 was greater than 10 µM at c-MET; greater than 100 µM in series [1] (Homo sapiens, HeLa); greater than 100 µM in series [2] (setting [4]); 71.2 ± 0.34 µM in series [3] (Homo sapiens, MCF7, MTT assay).
Take `CNC(=O)c1cc(Oc2cccc(C(=O)Nc3ccc(Cl)cc3)c2)ccn1` [Compound 11e, 4-{3-((4-chlorophenyl)carbamoyl)phenoxy}-N-methylpicolinamide]: the IC50 at c-MET is 7.4 ± 0.07 µM; in series [1] (Homo sapiens, HeLa) it was 26.4 ± 0.2 µM; in series [2] (setting [4]) it was greater than 100 µM; in series [3] (Homo sapiens, MCF7, MTT assay), 34.5 ± 0.36 µM.
In the case of `CNC(=O)c1cc(Oc2cccc(C(=O)Nc3ccc(F)cc3)c2)ccn1` [Compound 11f, 4-{3-((4-fluorophenyl)carbamoyl)phenoxy}-N-methylpicolinamide], the IC50 at c-MET was 5.3 ± 0.05 µM; in series [1] (Homo sapiens, HeLa) it was 27.8 ± 0.34 µM; in series [2] (setting [4]), greater than 100 µM; in series [3] (Homo sapiens, MCF7, MTT assay), 42.1 ± 0.27 µM.
With `COc1ccc(NC(=O)c2cccc(Oc3ncnc4sc5c(c34)CCN(C(=O)OC(C)(C)C)C5)c2)cc1OC` [Compound 11g, tert-butyl 4-{3-((3,4-dimethoxyphenyl)carbamoyl)phenoxy}-5,6-dihydropyrido(4’,3’:4,5)thieno(2,3-d)pyrimidine-7(8H)-carboxylate], the melting point lay in the range of 103 to 105 °C. On c-MET, the IC50 came out at 1.4 ± 0.1 µM. Besides, in series [1] (Homo sapiens, HeLa), the IC50 amounted to 4.4 ± 0.26 µM. In addition, the IC50 in series [2] (setting [4]) was greater than 100 µM. Further, the IC50 in series [3] (Homo sapiens, MCF7, MTT assay) is 17.3 ± 0.38 µM.
For `CC(C)(C)OC(=O)N1CCc2c(sc3ncnc(Oc4cccc(C(=O)Nc5ccc(Cl)cc5)c4)c23)C1` [Compound 11h, tert-butyl 4-{3-((4-chlorophenyl)carbamoyl)phenoxy}-5,6-dihydropyrido(4’,3’:4,5)thieno(2,3-d)pyrimidine-7(8H)-carboxylate], the IC50 on c-MET worked out at 0.25 ± 0.08 µM; in series [1] (Homo sapiens, HeLa), 10.7 ± 0.18 µM; in series [2] (setting [4]), 61.9 ± 0.23 µM; in series [3] (Homo sapiens, MCF7, MTT assay), 22.9 ± 0.22 µM.
Take `CC(C)(C)OC(=O)N1CCc2c(sc3ncnc(Oc4cccc(C(=O)Nc5ccc(F)cc5)c4)c23)C1` [Compound 11i, tert-butyl 4-{3-((4-fluorophenyl)carbamoyl)phenoxy}-5,6-dihydropyrido(4’,3’:4,5)thieno(2,3-d)pyrimidine-7(8H)-carboxylate]: the IC50 amounted to 0.05 ± 0.02 µM on c-MET; 1.5 ± 0.11 µM in series [1] (Homo sapiens, HeLa); 23.2 ± 0.36 µM in series [2] (setting [4]); 1.1 ± 0.31 µM in series [3] (Homo sapiens, MCF7, MTT assay).
`COc1cc2ncnc(Oc3ccc(NC(=O)C(C)(C)C(=O)Nc4ccc(F)cc4)cc3F)c2cc1OC` [Compound 13a, N^1-{4-((6,7-dimethoxyquinazolin-4-yl)oxy)-3-fluorophenyl}-N^3-(4-fluorophenyl)-2,2-dimethylmalonamide] registered a melting point of 210 to 212 °C. On c-MET, the IC50 is 7.1 ± 0.18 µM. Further, the IC50 in series [1] (Homo sapiens, HeLa) is greater than 100 µM. In series [2] (setting [4]), the IC50 is greater than 100 µM. The IC50 in series [3] (Homo sapiens, MCF7, MTT assay) was determined as 71.8 ± 0.31 µM.
In turn, `COc1cc2ncnc(Oc3ccc(NC(=O)C4(C(=O)Nc5ccc(F)cc5)CCC4)cc3F)c2cc1OC` [Compound 13c, N-{4-((6,7-dimethoxyquinazolin-4-yl)oxy)-3-fluorophenyl}-N-(4-fluorophenyl)cyclobutane-1,1-dicarboxamide] showed a melting point of 250 to 252 °C. Also, the IC50 at c-MET was 1.2 ± 0.06 µM. In series [1] (Homo sapiens, HeLa), the 50% inhibitory concentration (IC50) was 50.1 ± 0.25 µM. Also, in series [2] (setting [4]), the IC50 was 49.1 ± 0.3 µM. The IC50 in series [3] (Homo sapiens, MCF7, MTT assay) was greater than 100 µM.
`CNC(=O)c1cc(Oc2ccc(NC(=O)C(C)(C)C(=O)Nc3ccc(F)cc3)cc2)ccn1` [Compound 13d, N^1-(4-fluorophenyl)-2,2-dimethyl-N^3-{4-((2-(methylcarbamoyl)pyridin-4-yl)oxy]phenyl}malonamide] had a melting point of 113 to 115 °C. Further, on c-MET, the half-inhibitory concentration (IC50) is greater than 10 µM. For the same compound, the IC50 in series [1] (Homo sapiens, HeLa) was greater than 100 µM. In addition, the IC50 in series [2] (setting [4]) is greater than 100 µM. In series [3] (Homo sapiens, MCF7, MTT assay), the IC50 was 91.2 ± 0.26 µM.
`CC(C)(C)OC(=O)N1CCc2c(sc3ncnc(Oc4ccc(NC(=O)C(C)(C)C(=O)Nc5ccc(F)cc5)cc4F)c23)C1` [Compound 13g, tert-butyl-4-{2-fluoro-4-(3-((4-fluorophenyl)amino)-2,2-dimethyl-3-oxopropanamido)phenoxy}-5,6-dihydropyrido(4’,3’:4,5)thieno(2,3-d)pyrimidine-7(8H)-carboxylate] displayed a melting point of 126 to 128 °C. The 50% inhibitory concentration (IC50) at c-MET came to 9.4 ± 0.6 µM. The IC50 in series [1] (Homo sapiens, HeLa) is greater than 100 µM. Moreover, in series [2] (setting [4]), the IC50 is greater than 100 µM. Besides, in series [3] (Homo sapiens, MCF7, MTT assay), the IC50 amounted to 27.7 ± 0.35 µM.
For “N-(4-fluorophenyl)-N-{4-((2-(methylcarbamoyl)pyridin-4-yl)oxy)phenyl}cyclobutane-1,1-dicarboxamide [Compound 13f]”, the IC50 on c-MET was greater than 10 µM; in series [1] it was 87.8 ± 0.13 µM; in series [2] (Hep-G2 cells), greater than 100 µM; in series [3] (MTT assay) it was greater than 100 µM.
In the case of “N-(4-fluorophenyl)-N-{4-((2-(methylcarbamoyl)pyridin-4-yl)oxy)phenyl}cyclopropane-1,1-dicarboxamide [Compound 13e]”, the IC50 was greater than 10 µM at c-MET, 66.7 ± 0.36 µM in series [1], greater than 100 µM in series [2] (Hep-G2 cells) and greater than 100 µM in series [3] (MTT assay).
